Data on 38 molecules can be found in patent publication US10076519B2 (CYTOKINETICS, INC., priority 2010, dated 2018).

The structures appear in SMILES notation.

For the first experiment, the system named is rabbit skeletal myofibrils (fast skeletal myofibrils). Put plainly: Activation of fast skeletal myofibrils (PUMA assay, PK/LDH-coupled ATPase at pCa25). The experiment is classed as biochemical. The settings on record: AC1.4 determined according to the procedure of Example 39; reported as class symbols. The method, boiled down: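 Detergent-washed rabbit psoas myofibrils (~90% fast fibres, calcium-regulated) assayed at calcium giving 25% of maximal ATPase rate (pCa25). ADP turnover coupled via pyruvate kinase/lactate dehydrogenase to NADH oxidation, read at 340 nm. Buffer 12 mM PIPES, 2 mM MgCl2, 1 mM DTT, pH 6.8; AC1.4 values derived.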
Regarding `NC(=O)c1cccc(-c2ccc(NCC3(c4ccc(F)cc4)COC3)nn2)c1` [3-[6-({[3-(4-fluorophenyl)oxetan-3-yl]methyl}amino)pyridazin-3-yl]benzamide], the “Mean AC1.4” value is “D (D=>20 uM)”.

For `CCOC(=O)C1(NC(=O)c2ccc(NCC(C)(C)c3ccc(F)cc3)nn2)CC1` [ethyl 1-[(6-{[2-(4-fluorophenyl)-2-methylpropyl]amino}pyridazin-3-yl)carbonylamino]cyclopropane-carboxylate], the “Mean AC1.4” value was “D (D=>20 uM)”.

As for `COc1ccc(C2(CNc3ccc(-c4ccc5cn[nH]c5c4)nn3)CCC2)nc1` [(6-(1H-indazol-6-yl)pyridazin-3-yl){[(5-methoxy(2-pyridyl))cyclobutyl]methyl}amine], the “Mean AC1.4” value is recorded as “B (B=1-10 uM)”.

Regarding `CNC(=O)c1cc(-c2ccc(NCC3(c4ncccc4F)CCC3)nn2)ccc1F`, the “Mean AC1.4” value is “B (B=1-10 uM)”.

For the molecule `CC(C)(CNc1ccc(-c2ccc3[nH]nc(N)c3c2)nn1)c1cccc(CO)c1`, the “Mean AC1.4” value was “B (B=1-10 uM)”.

As for `CC(C)(CNc1ccc(-c2ccc3nc(N)[nH]c3c2)nn1)c1ccc(F)cc1` [[6-(2-aminobenzimidazol-5-yl)pyridazin-3-yl][2-(4-fluorophenyl)-2-methylpropyl]amine], the “Mean AC1.4” value is “A (A=<1 uM)”.

For the molecule `Fc1cccnc1C1(CNc2ccc(-c3cn[nH]c3)nn2)CCC1` [{[(3-fluoro(2-pyridyl))cyclobutyl]methyl}(6-pyrazol-4-ylpyridazin-3-yl)amine], the “Mean AC1.4” value is listed as “C (C=10-20 uM)”.

As for `CC(C)(CNc1ccc(-c2ccc3[nH]nc(C(O)CO)c3c2)nn1)c1ccc(F)cc1` (centres unmarked) [1-[5-(6-{[2-(4-fluorophenyl)-2-methylpropyl]amino}pyridazin-3-yl)-1H-indazol-3-yl]ethane-1,2-diol], the “Mean AC1.4” value is listed as “B (B=1-10 uM)”.

As to `Nc1n[nH]c2ccc(-c3ccc(NCC4(c5ncccc5F)CCC4)nn3)cc12` [[6-(3-amino(1H-indazol-5-yl))pyridazin-3-yl]{[(3-fluoro(2-pyridyl))cyclobutyl]methyl}amine], the “Mean AC1.4” value was “A (A=<1 uM)”.

As for `CC(C)(CNc1ccc(-c2ccc3[nH]nc(N)c3c2)nn1)c1cccc(O)c1`, the “Mean AC1.4” value is listed as “B (B=1-10 uM)”.

For the molecule `COC(=O)N1CC(CNc2ccc(-c3cccc(C(N)=O)c3)nn2)(c2ncccc2F)C1` [methyl 3-({[6-(3-carbamoylphenyl)pyridazin-3-yl]amino}methyl)-3-(3-fluoro(2-pyridyl))azetidinecarboxylate], the “Mean AC1.4” value is given as “D (D=>20 uM)”.

In the case of `NC(=O)c1ccnc(C2(CNc3ccc(-c4cc(C(N)=O)ccc4F)nn3)CCC2)c1`, the “Mean AC1.4” value was “D (D=>20 uM)”.

The same experiment, now with this note: median AC1.4 class, procedure of Example 39.
On to `O=C(NCc1cnc(-c2ccc(NCC3(c4ncccc4F)CCC3)nn2)s1)c1cn[nH]c1` [N-({2-[6-({[(3-fluoro(2-pyridyl))cyclobutyl]methyl}ami-no)pyridazin-3-yl](1,3-thiazol-5-yl)}methyl)pyrazol-4-ylcarboxamide], for which the “Mean AC1.4” value is “A (A=<1 uM)”.

Turning to `O=C(c1cnc(-c2ccc(NCC3(c4ncccc4F)CCC3)nn2)s1)N1CCS(=O)(=O)CC1` [4-({2-[6-({[(3-fluoro-2-pyridyl)cyclobutyl]methyl}ami-no)pyridazin-3-yl]-1,3-thiazol-5-yl}carbonyl)-1,4-thiazaperhydroine-1,1-dione], the “Mean AC1.4” value is “B (B=1-10 uM)”.

In the case of `NCC(=O)NCc1cnc(-c2ccc(NCC3(c4ncccc4F)CCC3)nn2)s1` [2-amino-N-({2-[6-({[(3-fluoro(2-pyridyl))cyclobutyl]methyl}ami-no)pyridazin-3-yl](1,3-thiazol-5-yl)}methyl)acetamide], the “Mean AC1.4” value is given as “A (A=<1 uM)”.

Take `CC(C)(O)c1ncccc1-c1ccc(NCC2(c3ncccc3F)CCC2)nn1`: the “Mean AC1.4” value is “D (D=>20 uM)”.

Take `COC(=O)N1CC(c2ccc(NCC3(c4ncccc4F)CCC3)nn2)C1`: the “Mean AC1.4” value is “D (D=>20 uM)”.

As for `Cc1nc(-c2ccc(NCC3(c4ncccc4F)CCC3)nn2)sc1C(N)=O` [2-[6-({[(3-fluoro(2-pyridyl))cyclobutyl]methyl}ami-no)pyridazin-3-yl]-4-methyl-1,3-thiazole-5-carboxamide], the “Mean AC1.4” value is “B (B=1-10 uM)”.

Consider `COc1cc(-c2ccc(NC3(c4ccc(F)cc4)CCC3)nn2)ccn1` [[(4-fluorophenyl)cyclobutyl][6-(2-methoxy(4-pyridyl))pyridazin-3-yl]amine], for which the “Mean AC1.4” value is “B (B=1-10 uM)”.

As for `Fc1ccc(C2(Nc3ccc(-c4cn[nH]c4)nn3)CCC2)cc1` [[(4-fluorophenyl)cyclobutyl](6-pyrazol-4-ylpyridazin-3-yl)amine], the “Mean AC1.4” value is “B (B=1-10 uM)”.

Consider `Fc1cccnc1C1(CNc2ccc(-c3nc4cccnc4s3)nn2)CCC1` [{[(3-fluoro(2-pyridyl))cyclobutyl]methyl}(6-(1,3-thiazolino[5,4-b]pyridin-2-yl)pyridazin-3-yl)amine], for which the “Mean AC1.4” value is “B (B=1-10 uM)”.

Regarding `CCOC(=O)c1c(-c2ccc(NCC3(c4ncccc4F)CCC3)nn2)n[nH]c1O` [ethyl 3-[6-({[(3-fluoro(2-pyridyl))cyclobutyl]methyl}ami-no)pyridazin-3-yl]-5-hydroxypyrazole-4-carboxylate], the “Mean AC1.4” value is recorded as “D (D=>20 uM)”.

On to `CS(=O)(=O)Nc1ccc(-c2ccc(NC3(c4ccc(F)cc4)CCC3)nn2)cc1`, for which the “Mean AC1.4” value is reported as “B (B=1-10 uM)”.

As to `CNC(=O)c1cc(-c2ccc(NC3(c4ccc(F)cc4)CCC3)nn2)ccn1`, the “Mean AC1.4” value is given as “B (B=1-10 uM)”.

Still in this experiment, the particulars now being: median AC1.4 reported as class; procedure of Example 39.
As for `O=C(NC1CC(F)(F)C1)c1ccc(F)c(-c2ccc(NC[C@]3(c4ncccc4F)C[C@H](F)C3)nn2)c1` [N-(3,3-difluorocyclobutyl){4-fluoro-3-[6-({[3-fluoro-1-(3-fluoro(2-pyridyl))cyclobutyl]methyl}ami-no)pyridazin-3-yl]phenyl}carboxamide], the “Mean AC1.4” value is “A (A=<1 uM)”.

With `COC(=O)c1cc2cc(-c3ccc(NC[C@]4(c5ncccc5F)C[C@H](F)C4)nn3)ccc2[nH]1` [methyl 5-[6-({[3-fluoro-1-(3-fluoro(2-pyridyl))cyclobutyl]methyl}ami-no)pyridazin-3-yl]indole-2-carboxylate], the “Mean AC1.4” value is on record as “A (A=<1 uM)”.

Take `C[C@@H](O)C(=O)NCc1cnc(-c2ccc(NCC3(c4ncccc4F)CCC3)nn2)s1` [(2R)-N-({2-[6-({[(3-fluoro(2-pyridyl))cyclobutyl]methyl}ami-no)pyridazin-3-yl](1,3-thiazol-5-yl)}methyl)-2-hydroxypropanamide]: the “Mean AC1.4” value is given as “A (A=<1 uM)”.

In the case of `CCOC(=O)c1cnc(NC(=O)c2ccc(NCC3(c4ncccc4F)CCC3)nn2)s1` [ethyl 2-{[6-({[(3-fluoro-2-pyridyl)cyclobutyl]methyl}ami-no)pyridazin-3-yl]carbonylamino}-1,3-thiazole-5-carboxylate], the “Mean AC1.4” value was “D (D=>20 uM)”.

`Cn1ccc(CNC(=O)c2ccc(NCC3(c4ncccc4F)CCC3)nn2)n1` [[6-({[(3-fluoro(2-pyridyl))cyclobutyl]methyl}ami-no)pyridazin-3-yl]-N-[(1-methylpyrazol-3-yl)methyl]carboxamide]: the “Mean AC1.4” value is recorded as “D (D=>20 uM)”.

In the case of `NC1(C(=O)NCc2cnc(-c3ccc(NCC4(c5ncccc5F)CCC4)nn3)s2)COC1` [(3-aminooxetan-3-yl)-N-({2-[6-({[(3-fluoro(2-pyridyl))cyclobutyl]methyl}ami-no)pyridazin-3-yl](1,3-thiazol-5-yl)}methyl)carboxamide], the “Mean AC1.4” value is reported as “A (A=<1 uM)”.

In the case of `CC1(O)CC(NC(=O)c2cccc(-c3ccc(NC[C@]4(c5ncccc5F)C[C@H](F)C4)nn3)c2)C1` (some centres unmarked) [{3-[6-({[3-fluoro-1-(3-fluoro(2-pyridyl))cyclobutyl]methyl}ami-no)pyridazin-3-yl]phenyl}-N-(3-hydroxy-3-methylcyclobutyl)carboxamide], the “Mean AC1.4” value is “B (B=1-10 uM)”.

`Fc1cccnc1[C@]1(CNc2ccc(-c3ccc(NC4CC4)nc3)nn2)C[C@@H](F)C1` [{6-[6-(cyclopropylamino)(3-pyridyl)]pyridazin-3-yl}{[3-fluoro-1-(3-fluoro(2-pyridyl))cyclobutyl]methyl}amine]: the “Mean AC1.4” value is on record as “D (D=>20 uM)”.

Consider `CNC(=O)c1cc(C)cc(-c2ccc(NC[C@]3(c4ncccc4F)C[C@H](F)C3)nn2)c1O` [{3-[6-({[3-fluoro-1-(3-fluoro(2-pyridyl))cyclobutyl]methyl}ami-no)pyridazin-3-yl]-2-hydroxy-5-methylphenyl}-N-methylcarboxamide], for which the “Mean AC1.4” value is listed as “B (B=1-10 uM)”.

In the case of `NC(=O)c1cc(-c2ccc(NC[C@]3(c4ncccc4F)C[C@H](F)C3)nn2)ccc1O` [5-[6-({[3-fluoro-1-(3-fluoro(2-pyridyl))cyclobutyl]methyl}ami-no)pyridazin-3-yl]-2-hydroxybenzamide], the “Mean AC1.4” value is reported as “A (A=<1 uM)”.

Regarding `O=C1CC[C@H](NC(=O)c2ccc(NCC3(c4ncccc4F)CCC3)nn2)CN1` [N-((3S)-6-oxo(3-piperidyl))[6-({[(3-fluoro(2-pyridyl))cyclobutyl]methyl}ami-no)pyridazin-3-yl]carboxamide], the “Mean AC1.4” value is reported as “D (D=>20 uM)”.

Consider `Cc1cc(NCC2(c3ncccc3F)CCC2)nnc1-c1cccc(C(N)=O)c1` [3-[6-({[(3-fluoro(2-pyridyl))cyclobutyl]methyl}ami-no)-4-methylpyridazin-3-yl]benzamide], for which the “Mean AC1.4” value was “C (C=10-20 uM)”.

Turning to `COc1ncc(-c2ccc(NC[C@]3(c4ncccc4F)C[C@H](F)C3)nn2)cc1C` [{[3-fluoro-1-(3-fluoro(2-pyridyl))cyclobutyl]methyl}[6-(6-methoxy-5-methyl(3-pyridyl))pyridazin-3-yl]amine], the “Mean AC1.4” value is reported as “D (D=>20 uM)”.

On to `CCOC(=O)Cc1nnc(NC(=O)c2ccc(NCC3(c4ncccc4F)CCC3)nn2)s1` [ethyl 2-(5-{[6-({[(3-fluoro-2-pyridyl)cyclobutyl]methyl}ami-no)pyridazin-3-yl]carbonylamino}-1,3,4-thiadiazol-2-yl)acetate], for which the “Mean AC1.4” value is recorded as “D (D=>20 uM)”.
